This is an account of results in patent US7939546B2, “Quinoline derivatives for modulating DNA methylation” (SuperGen, Inc., priority 2007, dated 2011).

One may read the melting point as the temperature, or range, at which the solid turns liquid. As usually defined, the pIC50 is −log10 of the IC50, conventionally taken in molar units.

For series [1], the target named is T1, DNMT1 (Homo sapiens, UniProt P26358). As to the kind of experiment: Selective depletion of DNMT1 by Western blot in treated HCT116 cells. More on the design: Protein extracts (equivalent to 100 μg) were isolated from HCT116 cells; endogenous in cells; host or cells: HCT116. The following applies: for % DNMT1 protein level remaining at 5 µM: HCT-116, 5 μM; for % DNMT1 protein level remaining at 10 µM: HCT-116, 10 μM; for % DNMT1 protein level remaining at 100 µM: HCT-116, 100 μM. Format: cell-based. An excerpt:
Biol. 2005, 11, 4727-41.]. For DNMT1, commercially available antibodies from Santa Cruz or New England Biolabs were used.
Target sequence in this assay (P26358 whole entry): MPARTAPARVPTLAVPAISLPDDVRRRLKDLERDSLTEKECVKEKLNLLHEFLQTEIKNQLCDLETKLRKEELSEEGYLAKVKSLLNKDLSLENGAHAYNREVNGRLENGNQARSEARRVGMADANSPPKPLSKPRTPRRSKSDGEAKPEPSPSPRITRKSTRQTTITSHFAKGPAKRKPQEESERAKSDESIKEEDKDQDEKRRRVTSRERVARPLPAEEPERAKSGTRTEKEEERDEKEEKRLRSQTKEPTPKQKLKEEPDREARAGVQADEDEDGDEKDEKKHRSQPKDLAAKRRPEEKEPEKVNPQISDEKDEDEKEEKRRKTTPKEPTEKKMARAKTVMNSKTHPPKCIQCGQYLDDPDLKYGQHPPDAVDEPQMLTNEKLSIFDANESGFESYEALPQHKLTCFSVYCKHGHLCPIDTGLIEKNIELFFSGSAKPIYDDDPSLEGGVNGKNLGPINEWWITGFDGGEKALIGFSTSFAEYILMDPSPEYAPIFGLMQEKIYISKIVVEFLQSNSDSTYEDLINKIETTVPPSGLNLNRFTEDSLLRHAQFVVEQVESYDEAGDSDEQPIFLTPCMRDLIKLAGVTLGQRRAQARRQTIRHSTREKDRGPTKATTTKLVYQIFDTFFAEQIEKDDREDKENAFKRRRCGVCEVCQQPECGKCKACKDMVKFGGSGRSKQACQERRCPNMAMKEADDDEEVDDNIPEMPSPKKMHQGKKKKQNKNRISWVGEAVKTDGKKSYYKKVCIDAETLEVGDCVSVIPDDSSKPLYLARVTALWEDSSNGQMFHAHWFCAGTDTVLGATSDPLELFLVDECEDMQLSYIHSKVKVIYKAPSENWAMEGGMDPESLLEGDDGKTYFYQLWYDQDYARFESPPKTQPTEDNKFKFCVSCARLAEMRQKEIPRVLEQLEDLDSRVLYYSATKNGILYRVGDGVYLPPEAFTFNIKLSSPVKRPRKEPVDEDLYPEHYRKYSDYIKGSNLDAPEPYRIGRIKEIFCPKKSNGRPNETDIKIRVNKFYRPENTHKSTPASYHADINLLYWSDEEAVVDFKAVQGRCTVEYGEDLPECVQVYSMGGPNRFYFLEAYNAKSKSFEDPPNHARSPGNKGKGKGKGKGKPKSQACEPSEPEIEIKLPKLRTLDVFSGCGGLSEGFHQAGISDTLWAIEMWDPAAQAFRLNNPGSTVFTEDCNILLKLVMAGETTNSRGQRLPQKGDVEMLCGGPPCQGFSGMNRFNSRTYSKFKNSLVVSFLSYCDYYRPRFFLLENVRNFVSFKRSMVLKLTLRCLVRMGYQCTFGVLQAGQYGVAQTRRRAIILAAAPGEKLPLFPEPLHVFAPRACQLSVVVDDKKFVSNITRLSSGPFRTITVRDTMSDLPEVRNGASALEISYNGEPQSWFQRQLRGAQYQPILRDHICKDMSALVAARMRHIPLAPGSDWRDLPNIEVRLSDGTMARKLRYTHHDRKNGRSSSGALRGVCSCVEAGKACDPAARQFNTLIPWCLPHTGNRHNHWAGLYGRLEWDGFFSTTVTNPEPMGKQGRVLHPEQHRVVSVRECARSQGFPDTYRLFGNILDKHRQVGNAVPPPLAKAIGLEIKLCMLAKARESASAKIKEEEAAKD
(In general: A western blot detects proteins with antibodies after separation by electrophoresis.)

A further series concerns CMV-EE210 cell line. As to the kind of experiment: Toxicity (TD50, cell viability) reported with the GFP assay. The following applies: for TD50: Dose at which cells are >50% viable. Here is the method: (§1) The demethylating activity of non-bis-quaternary 4-anilinoquinolines were tested in a cell-based GFP (green fluorescent protein) assay. This assay has a GFP gene regulated by the CMV promoter and is sensitive to the methylation of CpG sites within the promoter. A decrease in methylation resulting from exposure to a methylation inhibitor leads to GFP expression and is readily scored. Specifically, the CMV-EE210 cell line containing the epigenetically silenced GFP transgene was used to assay for reactivation of GFP expression by flow cytometry. CMV-EE210 was made by transfecting NIH 3T3 cells with the pTR-UF/UF1/UF2 plasmid (Zolotuhin et al., 1996), which is comprised of pBS(+) (Stratagene, Inc.) containing a cytomegalovirus (CMV) promoter driving a humanized GFP gene adapted for expression in mammalian cells. After transfection, high-level GFP expressing cells were initially selected by FACS analysis and sorting using a MoFlo cytometer (Cytomation, Inc.). […] To screen for reactivation of CMV-EE210, decitabine (at […]) or a test compound (at a concentration of 30-50 μM) was added to complete medium (phenol red free DMEM (Gibco, Life Technologies) supplemented with 10% fetal bovine serum (Hyclone)). Cells were then seeded to 30% confluence (˜5000 cell/well) in 96 well plate containing the test compounds and grown for three days in at 37° C. in 5% CO2. The plates were examined under a fluorescent microscope using a 450-490 excitation filter (13 filter cube, Leica, Deerfield Ill.). Wells were scored g1 positive if 10% of viable cells express GFP, g2 positive if 30% of viable cells express GFP and g3 if greater than 75% of the viable cells express GFP. GFP IC 50 is the concentration of an inhibitor that (like an IC50) is the dose at which the GFP expression level goes from g3 to g1/2.

In series [2] the test system is CMV-EE210 cell line containing the epigenetically silenced GFP transgene. As to the kind of experiment: Cell-based GFP assay for demethylating activity (reactivation of silenced GFP transgene). The following applies: for pIC50: read-out: GFP IC50. As to the method:
as §1

For a further series, the system named is RKO. As to the kind of experiment: Cell-based growth assay (Cell-Titer-Glo), RKO. The following applies: Homo sapiens, 96 hours, read-out: IC50 Values CTG. As to the method: Cell culture-based assays can be used to evaluate the ability of compounds of the invention to inhibit one or more cellular activities, such as cancer cell growth and/or survival. Numerous cancer cell lines can be obtained from the American Type Culture Collection (ATCC) and other sources. Briefly, cells are seeded into 96-well, tissue-culture treated, opaque white plates (Thermo Electron, Vantaa, Finland), at between 5000 and 10000 cells per well, depending on the speed of cell proliferation, in 100 μl of appropriate growth medium (determined by the ATCC). Cells are then exposed to the appropriate concentration of drug or an equal amount of DMSO (drug diluent) and allowed to grow in its presence for 96 hours. Following this, 100 μl of Cell-Titer-Glo (CTG) reagent (Promega, Inc., Madison, Wis.) is added to each well. Plates are then shaken for 2 minutes at room temperature to allow for cell lysis and incubated for 10 minutes at room temperature to stabilize the luminescent signal. Similar to the Kinase-Glo assay reagent from Promega, this reagent contains both luciferase enzyme and its substrate luciferin. Luciferase, activated by ATP in the cell lysate, catalyzes the conversion of luciferin to oxyluciferin, a reaction which produces light. The amount of light produced is proportionate to the amount of ATP in the cell lysate, which is itself proportional to cell number and gives an index of cellular proliferation.

For the next series, the system named is p16. Kind of series: RT-PCR assay for gene expression (p16) in RKO and HCT-116 cells. Format: cell-based. The following applies: FIG. 1, varying concentrations, forty eight hour incubation. Here is the method: RKO and HCT-116 cells were treated with Cpd. AAA, Cpd. BBB, and Cpd. CCC at varying concentrations. After a forty eight hour incubation cells were harvested for RNA isolation using the Qiagen RNeasy Mini kit. RNA was quantified using a spectrophotometer and 1 μg of RNA was used for cDNA synthesis using the Bio-Rad iScript cDNA Synthesis Kit. RTPCR was performed using SYBER GreenER qPCR SuperMix for iCycler according to the manufacturer's protocol. Primer sequences used are as follows [NT] (SEQ ID NO: 2) and [NT] (SEQ ID NO: 3), MLH-1 [NT] (SEQ ID NO: 4) and [NT] (SEQ ID NO:5), [NT] (SEQ ID NO: 6) and [NT] (SEQ ID NO: 7), GAPDH [NT] (SEQ ID NO:8) and [NT] (SEQ ID NO:9), and […] (SEQ ID NO: 10) and [NT] (SEQ ID NO:11). Samples were analyzed on the iQ5 Multicolor Real-Time PCR Detection System from Bio-Rad. Data analysis was performed using the iQ5 Optical System Software version 2.0, Threshold Cycle (CT) and CT mean values were determined from this software. For each sample there are at least four reactions, two for p16 and two for GAPDH the housekeeping control. The mean CT value from the GAPDH reactions was subtracted from each of the corresponding p16 samples CT giving a value termed Delta CT. Then the Delta CT for the untreated p16 sample is subtracted from all treated Delta CT values giving another value termed Delta Delta CT. […] The duplicate samples are averaged together to get an average Relative Expression for each treatment and the Standard Error is calculated. Relative expression values for p15 and MLH-1 were calculated using the same method. […] AAA, Cpd. BBB, and Cpd. […] Cpd. […] Because the higher levels of p16 seemed to have less effect in causing re-expression of p16 there may be some issues with drug solubility or toxicity at the higher concentrations tested.

Series [3] has as its target T1, DNMT1. As to the kind of experiment: DNMT1 Inhibition Assay (Epigentek DNMT1 Activity/Inhibition kit). To be noted: 100 μM SAM, 2.2 μg/ml DNMT1 enzyme. The series is classed as biochemical. Here is the method:
The DNMT1 Activity/Inhibition kit from Epigentek Inc. (Brooklyn, N.Y.) was used in this experiment (Catalog No. P-3006). In general terms, this assay utilizes an active DNMT1 enzyme incubated with S-adenosylmethionine (SAM) in 96-well plates upon which unmethylated DNA has been immobilized onto the surface of each well. After incubation the reaction wells are washed and probed with a primary anti-methylcytosine antibody, which will bind to methylated DNA. A secondary antibody is then used to detect the primary antibody and creates a signal that is proportional to the amount of methylated DNA in the well. Uninhibited DNMT1 produces a well with high levels of methylated DNA (high signal), whereas inhibited DNMT1 produces a well with low levels of methylation (low signal). The final concentrations of reagents used in this DNMT1 assay were as follows: 100 μM SAM and 2.2 μg/ml DNMT1 enzyme, with inhibitor concentrations typically ranging from 100 μM to 0.781 μM.
More specifically, test compounds were resuspended in 100% DMSO at 3 mM and serially diluted 1:2 in DMSO 8 times. A volume of 100 μl of 1× assay buffer was combined with 12 μl of 1 mM SAM solution and 4 μl of 66.7 μg/mL DNMT1 enzyme in the presence of 4 μl of test compound diluted in DMSO. Controls include enzyme only (no inhibitor, but containing 3.3% DMSO), no enzyme, and compounds having inhibitory activity. A volume of 30 μl of the mixed solution was then added to the substrate-coated wells in triplicate and incubated at 37° C. for 2 hours. Reaction wells are then washed 3× with 150 μl of DNMT wash buffer. The primary antibody (anti-methylcytosine) was diluted 1:1000 in wash buffer, added to each well (50 μl) and incubated at room temperature for 1 hour. Reaction wells were washed again. The secondary antibody was diluted 1:1000 in wash buffer, added to each well (50 μl) and incubated at room temperature for 30 min. The wells were washed for the last time. […] The stop solution was added (50 μl) and the plate was immediately read on a plate reader at 450 nm absorbance. […]
Target sequence in this assay (P26358 whole entry, species assumed): as the sequence (P26358 whole entry) above

pIC50: −log10 of the molar value. Read-outs that look alike come from different tables or passages of the source.

With `CN(C)c1ccc2c(Nc3ccc(NC(=O)c4cccc(Nc5cc[n+](C)cc5)c4)cc3)ccnc2c1` [Cpd. CC, 7-(dimethylamino)-4-[4-({3-[(1-methyl-4-pyridiniumyl)amino]benzoyl}amino)aniline]quinolinium dichloride], the melting point is 188 °C (dec.). In addition, at DNMT1 [1], the % DNMT1 protein level remaining at 5 µM was 65%, the % DNMT1 protein level remaining at 10 µM amounted to 81% and the % DNMT1 protein level remaining at 100 µM was 26%. Also, in the series with CMV-EE210 cell line, the “toxicity relative to decitabine” value is listed as “less than one-half as toxic as decitabine” and the TD50 is 25 µM. For the same molecule, the pIC50 in series [2] is 5.22.

Take `Cl.O=C(Nc1ccc(Sc2ccnc(O)c2)cc1)c1ccc(Nc2ccnc3ccccc23)cc1` [Cpd. CCC, N-[4-(2-hydroxypyridin-4-ylthio)phenyl]-4-(quinolin-4-ylamino)benzamide hydrochloride]: the pIC50 with RKO was 5.18. In the series with p16, the “RNA expression levels of p16” value is reported as “increase the RNA expression levels of p16”.

In the case of `O=C(Nc1ccc(SC2CNC(C(=O)O)C2)cc1)c1ccc(Nc2ccnc3ccccc23)cc1` (stereo not shown) [Cpd. DDD, 4-(4-(4-(quinolin-4-ylamino)benzamido)phenylthio)pyrrolidine-2-carboxylic acid], the pIC50 against DNMT1 [3] is 5.80.

As for `O=C(Nc1ccc(SC2CCNC2)cc1)c1ccc(Nc2ccnc3ccccc23)cc1` (stereo not shown) [Cpd. EEE, 3-(4-(4-(quinolin-4-ylamino)benzamido)phenylthio)pyrrolidine], on DNMT1 [3], the pIC50 was 5.26.

`O=C(Nc1ccc(SC2CCCNC2)cc1)c1ccc(Nc2ccnc3ccccc23)cc1` (stereo not shown) [Cpd. GGG, N-(4-(piperidin-3-ylthio)phenyl)-4-(quinolin-4-ylamino)-benzamide]: the pIC50 against DNMT1 [3] was 6.51.

`C[n+]1ccc(Nc2ccc(NC(=O)c3ccc(Nc4ccnc5ccc(N)cc45)cc3)cc2)cc1` [Cpd. L, 4-[4-({4-[(6-ammonio-4-quinolinyl)amino]benzoyl}amino)anilino]-1-methylpyridinium dichloride] gave a melting point of 262 to 266 °C. In addition, at DNMT1 [1], the % DNMT1 protein level remaining at 5 µM amounted to 144%, the % DNMT1 protein level remaining at 10 µM amounted to 145% and the % DNMT1 protein level remaining at 100 µM was 128%. In the series on CMV-EE210 cell line, this molecule came in with a TD50 of 50 µM. Besides, the pIC50 in series [2] is 4.30. Further, in series [2] (test compound 30-50 μM, decitabine at 11 M (so in the source), three days), the “GFP Expression Level” value is “g2 (g2 positive if 30% of viable cells express GFP)”.

`CN(C)c1ccc2nccc(Nc3ccc(C(=O)Nc4ccc(Nc5cc[n+](C)cc5)cc4)cc3)c2c1` [Cpd. O, 4-[4-({4-[(6-dimethylammonio-4-quinolinyl)amino]benzoyl}amino)-anilino]-1-methylpyridinium dichloride] gave a melting point of 242 to 246 °C. In addition, at DNMT1 [1], the % DNMT1 protein level remaining at 5 µM is 84%, the % DNMT1 protein level remaining at 10 µM was 150% and the % DNMT1 protein level remaining at 100 µM came out at 142%. Moreover, in the series on CMV-EE210 cell line, the “toxicity relative to decitabine” value is “less than one-half as toxic as decitabine” and the TD50 is 50 µM. Moreover, the pIC50 in series [2] is 4.90.

For the molecule `Cc1cc(Nc2ccc(NC(=O)c3ccc(Nc4ccnc5ccc(N(C)C)cc45)cc3)cc2)nc(N)n1.Cl` [Cpd. P, N-[4-(2-amino-6-methylpyrimidin-4-ylamino)phenyl]-4-(6-(dimethylamino)quinolin-4-ylamino)benzamide hydrochloride], the melting point fell in the range of 260 to 265 °C. Besides, at DNMT1 [1], the % DNMT1 protein level remaining at 5 µM turned out to be 57%, the % DNMT1 protein level remaining at 10 µM amounted to 91% and the % DNMT1 protein level remaining at 100 µM was found to be 11%. In the series with CMV-EE210 cell line, the “toxicity relative to decitabine” value is on record as “less than one-half as toxic as decitabine” and the TD50 turned out to be 25 µM. Besides, the pIC50 in series [2] (dose at which the GFP expression level goes from g3 to g1/2) was 4.30.

For the molecule `CN(C)c1ccc2nccc(Nc3ccc(C(=O)Nc4cccc(Nc5cc[n+](C)cc5)c4)cc3)c2c1` [Cpd. Q, 6-(dimethylamino)-4-[4-({3-[(1-methyl-4-pyridiniumyl)amino]anilino}carbonyl)anilino]quinolinium dichloride], the melting point was > 300 °C. In addition, on DNMT1 [1], the % DNMT1 protein level remaining at 5 µM was 219%, the % DNMT1 protein level remaining at 10 µM stood at 93% and the % DNMT1 protein level remaining at 100 µM amounted to 10%. In addition, in the series on CMV-EE210 cell line, the “toxicity relative to decitabine” value was “less than one-half as toxic as decitabine” and the TD50 is 25 µM. Besides, in series [2], the pIC50 is 4.90.
